From PubChem BioAssay (NCI)
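Dose response: 5 concentrations. Exposure: 48 h. Format: 96-well plates. Endpoint: linear interpolation; highest concentration if not reached. TGI: total growth inhibition.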

Experiments:
Experiment in all cases: inhibition of tumour cell growth, NCI panel, 48 h
HS 578T breast = system: HS 578T breast
NCI-H522 lung = system: NCI-H522 lung
NCI/ADR-RES ovarian = system: NCI/ADR-RES ovarian
BT-549 breast = system: BT-549 breast
PC-3 prostate = system: PC-3 prostate
MOLT-4 leukemia = system: MOLT-4 leukemia
COLO 205 colon = system: COLO 205 colon
MDA-MB-435 = system: MDA-MB-435
DU-145 prostate = system: DU-145 prostate
MCF7 breast = system: MCF7 breast
SR leukemia = system: SR leukemia
SF-268 CNS = system: SF-268 CNS
ACHN renal = system: ACHN renal
A549 NSCLC = system: A549 NSCLC
EKVX NSCLC = system: EKVX NSCLC
DLD-1 colon = system: DLD-1 colon
OVCAR-4 ovarian = system: OVCAR-4 ovarian
KM20L2 colon = system: KM20L2 colon
MDA-MB-231 breast = system: MDA-MB-231 breast
786-0 renal = system: 786-0 renal

Compound | TGI (HS 578T breast) | TGI (NCI-H522 lung) | TGI (NCI/ADR-RES ovarian) | TGI (BT-549 breast) | TGI (PC-3 prostate) | TGI (MOLT-4 leukemia) | TGI (COLO 205 colon) | TGI (MDA-MB-435) | TGI (DU-145 prostate) | TGI (MCF7 breast) | TGI (SR leukemia) | TGI (SF-268 CNS) | TGI (ACHN renal) | TGI (A549 NSCLC) | TGI (EKVX NSCLC) | TGI (DLD-1 colon) | TGI (OVCAR-4 ovarian) | TGI (KM20L2 colon) | TGI (MDA-MB-231 breast) | TGI (786-0 renal)
C/C(=N/NC(=O)c1ccncc1)C(F)(F)F | > 100 µM | > 100 µM | > 100 µM | > 100 µM | > 100 µM | > 100 µM | > 100 µM | > 100 µM | > 100 µM | > 100 µM | > 100 µM |  |  |  |  |  |  |  |  | 
CC(=O)CCC#Cc1ccccc1C(=O)C(C)=[N+]=[N-] |  |  |  |  |  | 85.4 µM | 39.6 µM |  |  |  |  | > 100 µM | > 100 µM | > 100 µM | > 100 µM | > 100 µM | > 100 µM | > 100 µM |  | 
COc1ccc(-c2cc(N3CCN(c4ccc(Cl)cc4)CC3)c(C#N)c(=O)o2)cc1 |  |  |  |  |  |  | > 100 µM |  |  |  | > 100 µM | 33.5 µM | 35.2 µM | 32.3 µM | 41.7 µM | > 100 µM | 5.07 µM | > 100 µM |  | 
COC(=O)/C=C1\SC2(OC1=Nc1ccccc1)C1CC3CC(C1)CC2C3 (stereo not given) | > 100 µM | > 100 µM | > 100 µM | > 100 µM | > 100 µM | > 100 µM |  | > 100 µM |  | > 100 µM | > 100 µM |  | > 100 µM | > 100 µM | > 100 µM |  | > 100 µM |  | > 100 µM | 
O=C(O)C(Cc1cc(I)c(O)c(I)c1)C1CCCCC1 (stereo not given) | > 100 µM | > 100 µM | > 100 µM | > 100 µM | 41.5 µM | 76.2 µM |  | > 100 µM | > 100 µM |  | > 100 µM | > 100 µM | > 100 µM | > 100 µM | > 100 µM |  | > 100 µM |  | 72.5 µM | > 100 µM
CC(C)(C)[Si](C)(C)OCC1OC(n2cnc3c(N)ncnc32)C2OC(=S)OC12 (stereo not given) | > 100 µM |  | 81.2 µM | 74.7 µM | > 100 µM | 69.3 µM | > 100 µM | 48.3 µM | > 100 µM | 93.4 µM | > 100 µM |  |  |  |  |  | > 100 µM |  | > 100 µM | 
O=C1c2cc(Br)ccc2-c2ccc3c4ccc5c6c(ccc(c7ccc1c2c73)c64)C(=O)c1cc(Br)ccc1-5 | > 100 µM | > 100 µM | > 100 µM | > 100 µM | > 100 µM |  | > 100 µM | > 100 µM | > 100 µM | > 100 µM | > 100 µM | > 100 µM | > 100 µM | > 100 µM | > 100 µM |  |  |  | > 100 µM | > 100 µM
CCOC(=O)CC1=N/C(=N/C(=N)N[N+](=O)[O-])SC1 |  | > 100 µM |  |  |  |  | > 100 µM |  |  |  |  | > 100 µM | > 100 µM | > 100 µM | > 100 µM | > 100 µM | > 100 µM | > 100 µM |  | > 100 µM
NCCCCCC(CCN)SCC1OC(n2cnc3c(N)ncnc32)C(O)C1O (stereo not given) |  | > 1500 µM | > 1500 µM |  |  | > 1500 µM | > 1500 µM |  |  | > 1500 µM |  | > 1500 µM |  | > 1500 µM | > 1500 µM | > 1500 µM | > 1500 µM | > 1500 µM |  | 
COc1cccc2c1C(=O)c1c(O)c3c(c(O)c1C2=O)C[C@@](O)(C(=O)CO)CC3OC1CC(N(C)CCOCC(OC(C)=O)OC(C)=O)C(O)C(C)O1 (stereo not given in full) |  | > 0.01 µM |  |  |  | > 0.01 µM |  |  |  |  |  | > 0.01 µM | > 0.01 µM | > 0.01 µM | > 0.01 µM | > 0.01 µM | > 0.01 µM | > 0.01 µM |  | > 0.01 µM
Fc1ccc(Nc2nc(Cl)c3[nH]cnc3n2)cc1Cl | > 100 µM | > 100 µM | > 100 µM | > 100 µM | > 100 µM | > 100 µM | > 100 µM | > 100 µM | > 100 µM | > 100 µM | > 100 µM | > 100 µM | > 100 µM | > 100 µM | > 100 µM |  | > 100 µM |  | > 100 µM | > 100 µM
Nc1ccccc1N |  | 47.5 µM |  |  |  | > 100 µM | > 100 µM |  |  |  | > 100 µM | > 100 µM | > 100 µM | > 100 µM |  | > 100 µM | > 100 µM |  |  | > 100 µM
CN1C2CCC1/C(=C/c1cccc3c1OCO3)C(=O)/C2=C\c1cccc2c1OCO2 |  |  |  |  |  | > 100 µM | > 100 µM |  |  |  | > 100 µM | > 100 µM | > 100 µM |  | > 100 µM | > 100 µM |  | > 100 µM |  | 
NC(Cc1ccc(CP(=O)(O)O)cc1)C(=O)O (stereo not given) | > 100 µM | > 100 µM | > 100 µM |  | > 100 µM | > 100 µM | > 100 µM | > 100 µM | > 100 µM | > 100 µM | > 100 µM | > 100 µM | > 100 µM | > 100 µM | > 100 µM |  | > 100 µM |  | > 100 µM | 
